Molecules are shown by their SMILES. ≈ marks a conversion by molar mass, not a printed value.

The values that follow come from DBAASP.

Among the test systems are Cryptococcus neoformans; Sporothrix schenckii; Escherichia coli; Escherichia coli MG1655; Escherichia coli JW5831; Escherichia coli JW3441.
Common to all, as to assay: ≥ marks a high value that may be exact or a test limit, other limits are often not marked, values filed in µg/mL are converted to µM
Assay [1] concerns Staphylococcus aureus ATCC 33592.
Assay [2] has as its system Pseudomonas aeruginosa ATCC BAA-427.
Assay [3] has as its system Candida albicans ATCC 10231.
Assay [4] concerns Bacillus subtilis ATCC 6633.
The test system of assay [5] is Staphylococcus aureus ATCC 29213.
In assay [6] the test system is Candida parapsilosis ATCC 22019.
The subject of assay [7] is Staphylococcus aureus ATCC BAA-44.
For assay [8], the system named is Klebsiella pneumoniae ATCC 27736.
The subject of assay [9] is Escherichia coli ATCC 9637.
Assay [10] has as its system Staphylococcus aureus ATCC 25923.
Assay [11] has as its system Staphylococcus aureus ATCC 700699.
For assay [12], the system named is Staphylococcus aureus ATCC 700698.
Assay [13] deals with Salmonella enterica subsp. enterica serovar Typhi Vi+.
For assay [14], the system named is Escherichia coli ATCC 35218.
For assay [15], the system named is Salmonella enterica subsp. enterica serovar Typhimurium ATCC 14028.
The subject of assay [16] is Escherichia coli ATCC 25922.
Assay [17] deals with Escherichia coli ATCC 11775.
Assay [18] concerns Candida albicans CPCC 400416.
Assay [19] has as its system Escherichia coli CPCC 100521.
Assay [20] has as its system Staphylococcus aureus CPCC 100520.
The test system of assay [21] is Pseudomonas aeruginosa H188.
For assay [22], the system named is Pseudomonas aeruginosa ATCC 27853.
Assay [23] has as its system Escherichia coli DH5alpha.

As to `CC[C@H](C)[C@H](NC(=O)[C@H](C)NC(=O)[C@H](CCCCN)NC(=O)[C@@H]1CCCN1C(=O)[C@H](C)NC(=O)[C@H](Cc1cnc[nH]1)NC(=O)[C@@H](NC(=O)[C@H](C)NC(=O)CNC(=O)[C@H](CCCCN)NC(=O)[C@@H](NC(=O)[C@H](CC(C)C)NC(=O)[C@H](Cc1c[nH]c2ccccc12)NC(=O)CNC(=O)[C@H](Cc1ccccc1)NC(=O)[C@@H](N)Cc1ccccc1)[C@@H](C)CC)[C@@H](C)CC)C(=O)N[C@@H](Cc1cnc[nH]1)C(=O)NCC(=O)N[C@@H](CC(C)C)C(=O)N[C@H](C(=O)N[C@@H](Cc1cnc[nH]1)C(=O)N[C@@H](CCCN=C(N)N)C(=O)N[C@@H](CCCN=C(N)N)C(=O)N[C@@H](CCCN=C(N)N)C(=O)N[C@@H](Cc1cnc[nH]1)C(=O)O)[C@@H](C)CC` [FFGWLIKGAIHAPKAIHGLIHRRRH], the minimum inhibitory concentration (MIC) (as a rule, the least concentration at which growth counts as inhibited) against Cryptococcus neoformans came to 13.6 µM (≈ 39.9 µg/mL); in [1], 1.6 µM (≈ 4.69 µg/mL); in assay [2], 6.8 µM (≈ 19.9 µg/mL); in [3], 13.6 µM (≈ 39.9 µg/mL); in assay [4] it was 3 µM (≈ 8.8 µg/mL); in assay [5], 1.6 µM (≈ 4.69 µg/mL). Besides, the MIC in assay [6] was determined as 6.8 µM (≈ 19.9 µg/mL); in assay [7] it was 1.6 µM (≈ 4.69 µg/mL); in assay [8], 6.8 µM (≈ 19.9 µg/mL); in assay [9], 3 µM (≈ 8.8 µg/mL); in assay [10], 3 µM (≈ 8.8 µg/mL); in the assay with Sporothrix schenckii, 27.2 µM (≈ 79.8 µg/mL). For the same compound, the MIC in assay [11] worked out at 1.6 µM (≈ 4.69 µg/mL); in assay [12], 3 µM (≈ 8.8 µg/mL).

For the compound `CC[C@H](C)[C@H](NC(=O)[C@@H]1CCCN1C(=O)[C@H](CCCN=C(N)N)NC(=O)[C@@H]1CCCN1C(=O)[C@H](Cc1cnc[nH]1)NC(=O)[C@H](CO)NC(=O)[C@@H](NC(=O)[C@@H]1CCCN1C(=O)[C@H](CCCCN)NC(=O)[C@@H]1CCCN1C(=O)[C@H](CO)NC(=O)[C@H](Cc1ccc(O)cc1)NC(=O)[C@@H]1CCCN1C(=O)[C@H](CCCN=C(N)N)NC(=O)[C@@H]1CCCN1C(=O)[C@H](CCCCN)NC(=O)CN)[C@@H](C)O)C(=O)N[C@@H](CCCN=C(N)N)C(=O)N[C@H](C(=O)O)C(C)C` [GKPRPYSPKPTSHPRPIRV], the MIC in [13] was 10 µM (≈ 21.7 µg/mL); in [14], 2 µM (≈ 4.34 µg/mL); in [15], 10 µM (≈ 21.7 µg/mL); in [16], 3.5 µM (≈ 7.6 µg/mL); in assay [17], 3 µM (≈ 6.51 µg/mL).

Consider `CC[C@H](C)[C@H](N)C(=O)N[C@H](C(=O)NCC(=O)N1CCC[C@H]1C(=O)N[C@H](C(=O)N[C@@H](CC(C)C)C(=O)NCC(=O)N[C@@H](CC(C)C)C(=O)N[C@H](C(=O)NCC(=O)N[C@@H](CCCCN)C(=O)N[C@@H](C)C(=O)N[C@@H](CC(C)C)C(=O)NCC(=O)NCC(=O)N[C@@H](CC(C)C)C(=O)N[C@@H](CC(C)C)C(N)=O)C(C)C)C(C)C)[C@@H](C)CC` [IIGPVLGLVGKALGGLL], for which the MIC in assay [18], in [19] and in [20] was no less than 161 µM each time.

Consider `CC[C@H](C)[C@H](NC(=O)[C@H](C)NC(=O)[C@H](CCCCN)NC(=O)[C@H](CC(C)C)NC(=O)[C@H](C)NC(=O)[C@@H](NC(=O)[C@H](Cc1cnc[nH]1)NC(=O)[C@H](CC(C)C)NC(=O)[C@H](CCC(=O)O)NC(=O)[C@@H](NC(=O)[C@H](CCCCN)NC(=O)[C@H](CCCCN)NC(=O)[C@H](C)NC(=O)[C@H](CO)NC(=O)[C@H](CCCCN)NC(=O)[C@H](Cc1ccccc1)NC(=O)[C@@H](NC(=O)[C@H](CCCCN)NC(=O)[C@H](CC(C)C)NC(=O)[C@H](Cc1ccccc1)NC(=O)[C@H](CO)NC(=O)[C@H](CCCCN)NC(=O)[C@H](Cc1c[nH]c2ccccc12)NC(=O)[C@H](CCCCN)NC(C)=O)[C@@H](C)O)[C@@H](C)O)[C@@H](C)O)C(=O)N[C@@H](CO)C(=O)N[C@@H](CO)C(N)=O` [KWKSFLKTFKSAKKTELHTALKAISS], for which the MIC was 21.5 µM (≈ 64.9 µg/mL) in assay [21]; 42 µM (≈ 127 µg/mL) in assay [22]; 42 µM (≈ 127 µg/mL) against Escherichia coli; 5.37 µM (≈ 16.2 µg/mL) in [16]; 21.5 µM (≈ 64.9 µg/mL) in assay [23].

For `CC[C@H](C)[C@H](NC(=O)[C@H](CCCCN)NC(=O)CNC(=O)[C@H](CC(C)C)NC(=O)[C@H](CC(C)C)NC(=O)[C@H](Cc1cnc[nH]1)NC(=O)[C@H](Cc1ccccc1)NC(=O)[C@@H](N)C(C)C)C(=O)N[C@H](C(=O)N[C@@H](Cc1cnc[nH]1)C(=O)N[C@@H](Cc1cnc[nH]1)C(=O)N[C@H](C(=O)NCC(=O)N[C@@H](CC(N)=O)C(=O)N[C@@H](Cc1ccccc1)C(=O)N[C@H](C(=O)N[C@@H](Cc1ccc(O)cc1)C(=O)NCC(=O)N[C@@H](Cc1ccccc1)C(=O)N[C@@H](CO)C(=O)N[C@@H](Cc1cnc[nH]1)C(=O)N[C@H](C(=O)N[C@@H](Cc1ccccc1)C(N)=O)C(C)C)C(C)C)C(C)C)[C@@H](C)CC` [VFHLLGKIIHHVGNFVYGFSHVF], the MIC in the assay on Escherichia coli MG1655, against Escherichia coli JW5831 and with Escherichia coli JW3441 was 4 µM (≈ 10.7 µg/mL) each time.
